Source: article PMC11266321 (EJNMMI Radiopharmacy and Chemistry, 2024)
Where “and” joins values, the source holds several entries; their conditions need not be identical. Equal entries are not always repeated.

Assay: Tissue distribution of radioactivity in mice
Assay type: in vivo, mouse
Settings: mean ± SD n = 4
Experimental: [^11C]MMP (8.1 MBq/17 pmol) was injected intravenously into 8-week-old male ddY mice (37.8–42.4 g). The tracer-injected mice were housed individually in filter-paper-lined animal-rearing cages until the time of euthanasia. Mice were euthanized by cervical dislocation at 1, 5, 15, 30, 60, and 90 min after injection (n = 4 each). Blood was collected by heart puncture, and the tissues were harvested. Radioactivity excreted into urine was recovered from the cage floor and by cystocentesis from the urinary bladder. The samples were measured for ^11C radioactivity with an auto-gamma counter (Hidex-AMG, Turku, Finland) and weighed. Tissue uptake of ^11C was expressed as the percentage of injected dose per organ (%ID/organ) or the percentage of injected dose per gram of tissue (%ID/g). The tissue distribution data were extrapolated to an adult male phantom using the %kg/g method (Blau [1975]). The radiation absorbed dose and effective dose for human adults were estimated using OLINDA/EXM software (Vanderbilt University, Nashville, TN) (Stabin et al. [2005]). Effective dose was estimated using the risk-weighting factor of ICRP Publication 103 (ICRP [2007]).

CC(C)NC(C)Cc1ccc([11CH3])cc1 (centres unmarked) [[^11C]MMP, N-isopropyl-4-[^11C]methylamphetamine]
Injected dose/g tissue (%), Blood (1 min after i.v. injection): 1.40 ± 0.24 %ID/g | Injected dose/g tissue (%), Bone (1 min after i.v. injection): 2.21 ± 0.54 %ID/g | Injected dose/g tissue (%), Brain (1 min after i.v. injection): 5.75 ± 0.42 %ID/g | Injected dose/g tissue (%), Heart (1 min after i.v. injection): 8.23 ± 1.30 %ID/g | Injected dose/g tissue (%), Kidney (1 min after i.v. injection): 12.93 ± 7.10 %ID/g | Injected dose/g tissue (%), Large intestine (1 min after i.v. injection): 1.92 ± 0.95 %ID/g | Injected dose/g tissue (%), Liver (1 min after i.v. injection): 1.56 ± 0.87 %ID/g | Injected dose/g tissue (%), Lung (1 min after i.v. injection): 28 %ID/g and 27.53 ± 4.66 %ID/g | Injected dose/g tissue (%), Muscle (1 min after i.v. injection): 1.77 ± 0.86 %ID/g | Injected dose/g tissue (%), Pancreas (1 min after i.v. injection): 3.96 ± 1.02 %ID/g | Injected dose/g tissue (%), Small intestine (1 min after i.v. injection): 1.49 ± 0.84 %ID/g | Injected dose/g tissue (%), Spleen (1 min after i.v. injection): 1.46 ± 0.42 %ID/g | Injected dose/g tissue (%), Stomach (1 min after i.v. injection): 2.06 ± 1.30 %ID/g | Injected dose/g tissue (%), Testis (1 min after i.v. injection): 0.96 ± 0.24 %ID/g | Injected dose/organ (%), Bladder (1 min after i.v. injection): 0.07 ± 0.05 %ID/organ | Injected dose/organ (%), Bladder + urine (1 min after i.v. injection): 0.07 ± 0.05 %ID/organ | Injected dose/organ (%), Brain (1 min after i.v. injection): 2.28 ± 0.25 %ID/organ | Injected dose/organ (%), Heart (1 min after i.v. injection): 1.56 ± 0.27 %ID/organ | Injected dose/organ (%), Kidney (1 min after i.v. injection): 7.4 %ID/organ and 7.44 ± 4.00 %ID/organ | Injected dose/organ (%), Large intestine (1 min after i.v. injection): 2.47 ± 1.19 %ID/organ | Injected dose/organ (%), Liver (1 min after i.v. injection): 2.63 ± 1.23 %ID/organ | Injected dose/organ (%), Lung (1 min after i.v. injection): 5.54 ± 0.95 %ID/organ | Injected dose/organ (%), Pancreas (1 min after i.v. injection): 0.76 ± 0.23 %ID/organ | Injected dose/organ (%), Small intestine (1 min after i.v. injection): 2.74 ± 1.46 %ID/organ | Injected dose/organ (%), Spleen (1 min after i.v. injection): 0.17 ± 0.07 %ID/organ | Injected dose/organ (%), Stomach (1 min after i.v. injection): 1.59 ± 1.06 %ID/organ | Injected dose/organ (%), Testis (1 min after i.v. injection): 0.24 ± 0.03 %ID/organ | Injected dose/organ (%), Urine (1 min after i.v. injection): 0.00 ± 0.00 %ID/organ | Injected dose/g tissue (%), Blood (5 min after i.v. injection): 1.10 ± 0.14 %ID/g | Injected dose/g tissue (%), Bone (5 min after i.v. injection): 2.20 ± 0.30 %ID/g | Injected dose/g tissue (%), Brain (5 min after i.v. injection): 6.87 ± 0.62 %ID/g | Injected dose/g tissue (%), Heart (5 min after i.v. injection): 3.53 ± 0.21 %ID/g | Injected dose/g tissue (%), Kidney (5 min after i.v. injection): 16.26 ± 1.85 %ID/g | Injected dose/g tissue (%), Large intestine (5 min after i.v. injection): 2.36 ± 0.41 %ID/g | Injected dose/g tissue (%), Liver (5 min after i.v. injection): 4.30 ± 0.84 %ID/g | Injected dose/g tissue (%), Lung (5 min after i.v. injection): 21.20 ± 1.81 %ID/g | Injected dose/g tissue (%), Muscle (5 min after i.v. injection): 2.14 ± 0.14 %ID/g | Injected dose/g tissue (%), Pancreas (5 min after i.v. injection): 8.21 ± 0.70 %ID/g | Injected dose/g tissue (%), Small intestine (5 min after i.v. injection): 3.65 ± 0.21 %ID/g | Injected dose/g tissue (%), Spleen (5 min after i.v. injection): 5.09 ± 0.59 %ID/g | Injected dose/g tissue (%), Stomach (5 min after i.v. injection): 3.24 ± 1.94 %ID/g | Injected dose/g tissue (%), Testis (5 min after i.v. injection): 1.26 ± 0.25 %ID/g | Injected dose/organ (%), Bladder (5 min after i.v. injection): 0.09 ± 0.03 %ID/organ | Injected dose/organ (%), Bladder + urine (5 min after i.v. injection): 3.51 ± 1.80 %ID/organ | Injected dose/organ (%), Brain (5 min after i.v. injection): 2.68 ± 0.33 %ID/organ | Injected dose/organ (%), Heart (5 min after i.v. injection): 0.63 ± 0.05 %ID/organ | Injected dose/organ (%), Kidney (5 min after i.v. injection): 9.5 %ID/organ and 9.54 ± 0.98 %ID/organ | Injected dose/organ (%), Large intestine (5 min after i.v. injection): 2.7 %ID/organ and 2.68 ± 0.45 %ID/organ | Injected dose/organ (%), Liver (5 min after i.v. injection): 9.53 ± 2.41 %ID/organ | Injected dose/organ (%), Lung (5 min after i.v. injection): 3.21 ± 0.65 %ID/organ | Injected dose/organ (%), Pancreas (5 min after i.v. injection): 1.70 ± 0.23 %ID/organ | Injected dose/organ (%), Small intestine (5 min after i.v. injection): 6.8 %ID/organ and 6.77 ± 0.37 %ID/organ | Injected dose/organ (%), Spleen (5 min after i.v. injection): 0.57 ± 0.05 %ID/organ | Injected dose/organ (%), Stomach (5 min after i.v. injection): 1.88 ± 0.90 %ID/organ | Injected dose/organ (%), Testis (5 min after i.v. injection): 0.32 ± 0.06 %ID/organ | Injected dose/organ (%), Urine (5 min after i.v. injection): 3.42 ± 1.82 %ID/organ | Injected dose/g tissue (%), Blood (15 min after i.v. injection): 0.72 ± 0.23 %ID/g | Injected dose/g tissue (%), Bone (15 min after i.v. injection): 1.29 ± 0.18 %ID/g | Injected dose/g tissue (%), Brain (15 min after i.v. injection): 4.83 ± 0.21 %ID/g | Injected dose/g tissue (%), Heart (15 min after i.v. injection): 1.93 ± 0.18 %ID/g | Injected dose/g tissue (%), Kidney (15 min after i.v. injection): 11.36 ± 1.39 %ID/g | Injected dose/g tissue (%), Large intestine (15 min after i.v. injection): 1.59 ± 0.62 %ID/g | Injected dose/g tissue (%), Liver (15 min after i.v. injection): 6.07 ± 1.10 %ID/g | Injected dose/g tissue (%), Lung (15 min after i.v. injection): 7.97 ± 0.89 %ID/g | Injected dose/g tissue (%), Muscle (15 min after i.v. injection): 1.22 ± 0.10 %ID/g | Injected dose/g tissue (%), Pancreas (15 min after i.v. injection): 8.55 ± 1.10 %ID/g | Injected dose/g tissue (%), Small intestine (15 min after i.v. injection): 3.29 ± 0.83 %ID/g | Injected dose/g tissue (%), Spleen (15 min after i.v. injection): 4.45 ± 0.69 %ID/g | Injected dose/g tissue (%), Stomach (15 min after i.v. injection): 4.51 ± 1.35 %ID/g | Injected dose/g tissue (%), Testis (15 min after i.v. injection): 1.63 ± 0.16 %ID/g | Injected dose/organ (%), Bladder (15 min after i.v. injection): 0.60 ± 0.32 %ID/organ | Injected dose/organ (%), Bladder + urine (15 min after i.v. injection): 13.64 ± 2.31 %ID/organ | Injected dose/organ (%), Brain (15 min after i.v. injection): 2.12 ± 0.06 %ID/organ | Injected dose/organ (%), Heart (15 min after i.v. injection): 0.33 ± 0.02 %ID/organ | Injected dose/organ (%), Kidney (15 min after i.v. injection): 7.47 ± 1.09 %ID/organ | Injected dose/organ (%), Large intestine (15 min after i.v. injection): 2.13 ± 1.04 %ID/organ | Injected dose/organ (%), Liver (15 min after i.v. injection): 15 %ID/organ and 14.98 ± 2.48 %ID/organ | Injected dose/organ (%), Lung (15 min after i.v. injection): 1.47 ± 0.10 %ID/organ | Injected dose/organ (%), Pancreas (15 min after i.v. injection): 1.74 ± 0.24 %ID/organ | Injected dose/organ (%), Small intestine (15 min after i.v. injection): 6.13 ± 1.74 %ID/organ | Injected dose/organ (%), Spleen (15 min after i.v. injection): 0.64 ± 0.12 %ID/organ | Injected dose/organ (%), Stomach (15 min after i.v. injection): 2.46 ± 0.69 %ID/organ | Injected dose/organ (%), Testis (15 min after i.v. injection): 0.45 ± 0.05 %ID/organ | Injected dose/organ (%), Urine (15 min after i.v. injection): 13.03 ± 2.51 %ID/organ | Injected dose/g tissue (%), Blood (30 min after i.v. injection): 0.62 ± 0.21 %ID/g | Injected dose/g tissue (%), Bone (30 min after i.v. injection): 0.76 ± 0.26 %ID/g | Injected dose/g tissue (%), Brain (30 min after i.v. injection): 2.63 ± 0.22 %ID/g | Injected dose/g tissue (%), Heart (30 min after i.v. injection): 1.16 ± 0.22 %ID/g | Injected dose/g tissue (%), Kidney (30 min after i.v. injection): 7.08 ± 1.91 %ID/g | Injected dose/g tissue (%), Large intestine (30 min after i.v. injection): 1.22 ± 0.63 %ID/g | Injected dose/g tissue (%), Liver (30 min after i.v. injection): 5.46 ± 0.97 %ID/g | Injected dose/g tissue (%), Lung (30 min after i.v. injection): 3.68 ± 0.50 %ID/g | Injected dose/g tissue (%), Muscle (30 min after i.v. injection): 0.78 ± 0.17 %ID/g | Injected dose/g tissue (%), Pancreas (30 min after i.v. injection): 4.58 ± 0.52 %ID/g | Injected dose/g tissue (%), Small intestine (30 min after i.v. injection): 2.14 ± 0.67 %ID/g | Injected dose/g tissue (%), Spleen (30 min after i.v. injection): 2.48 ± 0.45 %ID/g | Injected dose/g tissue (%), Stomach (30 min after i.v. injection): 2.69 ± 0.26 %ID/g | Injected dose/g tissue (%), Testis (30 min after i.v. injection): 1.69 ± 0.36 %ID/g
